Here are results for 17 compounds from patent US10245261B2, “Substituted indol-5-ol derivatives and their therapeutic applications” (NantBioScience, Inc., priority 2013, dated 2019).

Common to all, as to assay: KinaseProfiler kinase assay
Common to all, as to assay type: biochemical

The target of one test is Abl(h) (Homo sapiens, UniProt P00519).
The target in a further test is Ret(h) (Homo sapiens, UniProt P07949). As to the method: (§1) This example tests the inhibitory properties of representative compounds of the invention in c-Src kinase, Aurora-A kinase, Flt3 kinase, Ret kinase and TrkA Kinase assays (see, Daniele Fancelli et al, J. Med. Chem., 2006, 49 (24), pp 7247-7251). The KinaseProfiler™ Service Assay Protocols (Millipore) was used to test the kinase inhibiting activity of novel compounds from this invention. To do this, the buffer composition was as: 20 mM MOPS, 1 mM EDTA, 0.01% Brij-35, 5% Glycerol, 0.1% β-mercaptoethanol, 1 mg/mL BSA. Test compounds were initially dissolved in DMSO at the desired concentration, then serially diluted to the kinase assay buffer. In a final reaction volume of 25 μL, Aurora-A(h) (5-10 mU) is incubated with 8 mM MOPS pH 7.0, 0.2 mM EDTA, 200 μM LRRASLG (Kemptide), 10 mM MgAcetate and [γ^33P-ATP]. The reaction was initiated by the addition of the MgATP mix. After incubation for 40 minute at room temperature, the reaction was stopped by addition of 5 μL of a 3% phosphoric acid solution. 10 μL of the reaction was then spotted onto a P30 filtermat and washed three times for 5 minutes in 50 mM phosphoric acid and once in methanol prior to drying and scintillation counting. Wells containing substrate but no kinase and wells containing a phosphopeptide control were used to set 0% and 100% phosphorylation value, respectively.
Ret(h), sequence (P07949 29-1114): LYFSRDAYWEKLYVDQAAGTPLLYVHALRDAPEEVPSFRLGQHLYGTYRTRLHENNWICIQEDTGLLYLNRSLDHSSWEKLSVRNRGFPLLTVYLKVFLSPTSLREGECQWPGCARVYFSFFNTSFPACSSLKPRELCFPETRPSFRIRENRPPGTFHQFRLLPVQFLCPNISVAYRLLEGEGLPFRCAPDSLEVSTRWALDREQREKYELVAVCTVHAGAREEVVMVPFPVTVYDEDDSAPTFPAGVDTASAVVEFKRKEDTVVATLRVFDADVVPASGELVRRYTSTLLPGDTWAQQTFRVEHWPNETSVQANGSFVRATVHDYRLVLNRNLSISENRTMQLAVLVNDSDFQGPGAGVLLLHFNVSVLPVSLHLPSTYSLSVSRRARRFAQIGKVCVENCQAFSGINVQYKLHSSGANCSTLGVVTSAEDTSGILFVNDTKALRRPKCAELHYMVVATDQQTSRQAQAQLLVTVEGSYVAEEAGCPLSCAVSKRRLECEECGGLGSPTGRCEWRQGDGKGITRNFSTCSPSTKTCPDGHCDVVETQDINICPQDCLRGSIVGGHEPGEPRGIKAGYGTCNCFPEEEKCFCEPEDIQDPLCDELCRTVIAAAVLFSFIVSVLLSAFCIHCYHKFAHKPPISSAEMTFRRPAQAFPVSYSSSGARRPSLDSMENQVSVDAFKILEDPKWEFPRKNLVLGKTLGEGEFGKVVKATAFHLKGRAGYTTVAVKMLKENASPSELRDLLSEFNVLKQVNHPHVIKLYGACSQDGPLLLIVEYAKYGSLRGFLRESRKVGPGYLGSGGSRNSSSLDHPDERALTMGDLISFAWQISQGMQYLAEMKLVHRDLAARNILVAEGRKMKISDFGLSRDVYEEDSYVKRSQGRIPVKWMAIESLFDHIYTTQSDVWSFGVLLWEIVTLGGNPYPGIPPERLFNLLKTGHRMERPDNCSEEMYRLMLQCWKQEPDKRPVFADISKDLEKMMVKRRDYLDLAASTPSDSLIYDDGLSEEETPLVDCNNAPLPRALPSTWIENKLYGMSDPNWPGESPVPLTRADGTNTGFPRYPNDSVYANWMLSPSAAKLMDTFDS
(§2) The Kinase Hotspot℠ kinase assay was also used to test the compounds for IC50 or % inhibitions (Reaction Biology Corp.). Inhibitory IC50 values were determined by titration of compound at the optimal kinase concentration (Kinase EC50).

A further test has as its target T1, Aurora-A(h) (Homo sapiens, UniProt O14965).
T1 sequence (O14965 1-403): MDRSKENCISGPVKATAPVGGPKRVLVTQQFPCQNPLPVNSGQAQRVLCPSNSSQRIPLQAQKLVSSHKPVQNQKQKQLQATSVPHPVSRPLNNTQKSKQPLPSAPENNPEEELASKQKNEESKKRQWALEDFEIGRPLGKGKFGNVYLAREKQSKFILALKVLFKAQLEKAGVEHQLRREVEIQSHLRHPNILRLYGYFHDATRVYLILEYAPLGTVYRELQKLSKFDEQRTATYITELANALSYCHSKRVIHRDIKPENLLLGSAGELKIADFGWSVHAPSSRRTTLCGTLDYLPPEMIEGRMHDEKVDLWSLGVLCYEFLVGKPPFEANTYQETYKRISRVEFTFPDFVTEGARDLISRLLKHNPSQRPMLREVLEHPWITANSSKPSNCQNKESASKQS
The note with it: read-out: % Inhibition @1 μM Auroro-A. As to the method:
as §1, §2

The next test concerns the target T2, Flt3(h) (Homo sapiens, UniProt P36888).
T2 sequence (P36888 27-993): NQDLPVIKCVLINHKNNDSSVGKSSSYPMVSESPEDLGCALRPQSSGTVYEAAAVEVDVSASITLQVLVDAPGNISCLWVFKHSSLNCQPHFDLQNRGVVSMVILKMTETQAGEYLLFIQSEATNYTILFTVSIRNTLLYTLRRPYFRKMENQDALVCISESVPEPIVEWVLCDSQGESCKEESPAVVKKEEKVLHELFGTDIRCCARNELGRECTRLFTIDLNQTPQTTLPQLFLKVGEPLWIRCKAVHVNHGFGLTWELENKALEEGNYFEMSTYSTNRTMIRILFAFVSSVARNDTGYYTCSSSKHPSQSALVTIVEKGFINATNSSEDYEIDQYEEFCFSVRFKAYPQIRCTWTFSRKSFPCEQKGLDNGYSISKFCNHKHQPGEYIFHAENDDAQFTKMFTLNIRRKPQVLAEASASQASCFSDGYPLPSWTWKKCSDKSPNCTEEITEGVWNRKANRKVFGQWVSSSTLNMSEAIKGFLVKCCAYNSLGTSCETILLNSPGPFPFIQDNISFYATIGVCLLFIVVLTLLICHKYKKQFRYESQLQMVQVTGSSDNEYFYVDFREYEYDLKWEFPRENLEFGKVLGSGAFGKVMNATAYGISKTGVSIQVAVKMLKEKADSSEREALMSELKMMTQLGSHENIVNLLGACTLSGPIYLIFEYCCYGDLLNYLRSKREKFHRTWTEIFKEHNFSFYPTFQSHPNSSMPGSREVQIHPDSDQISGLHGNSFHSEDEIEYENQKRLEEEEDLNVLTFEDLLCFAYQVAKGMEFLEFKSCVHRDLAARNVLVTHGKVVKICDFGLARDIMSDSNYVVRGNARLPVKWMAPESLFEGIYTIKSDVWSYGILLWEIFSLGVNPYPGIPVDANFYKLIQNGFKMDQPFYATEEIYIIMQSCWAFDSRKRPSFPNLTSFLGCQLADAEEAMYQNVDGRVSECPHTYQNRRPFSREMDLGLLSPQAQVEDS
As to the method:
as §1, §2

A further test deals with cSRC(h) (Homo sapiens, UniProt P12931). On the procedure:
as §1, §2

The target of another test is KDR(h) (Homo sapiens, UniProt P35968).
KDR(h), sequence (P35968 20-1356): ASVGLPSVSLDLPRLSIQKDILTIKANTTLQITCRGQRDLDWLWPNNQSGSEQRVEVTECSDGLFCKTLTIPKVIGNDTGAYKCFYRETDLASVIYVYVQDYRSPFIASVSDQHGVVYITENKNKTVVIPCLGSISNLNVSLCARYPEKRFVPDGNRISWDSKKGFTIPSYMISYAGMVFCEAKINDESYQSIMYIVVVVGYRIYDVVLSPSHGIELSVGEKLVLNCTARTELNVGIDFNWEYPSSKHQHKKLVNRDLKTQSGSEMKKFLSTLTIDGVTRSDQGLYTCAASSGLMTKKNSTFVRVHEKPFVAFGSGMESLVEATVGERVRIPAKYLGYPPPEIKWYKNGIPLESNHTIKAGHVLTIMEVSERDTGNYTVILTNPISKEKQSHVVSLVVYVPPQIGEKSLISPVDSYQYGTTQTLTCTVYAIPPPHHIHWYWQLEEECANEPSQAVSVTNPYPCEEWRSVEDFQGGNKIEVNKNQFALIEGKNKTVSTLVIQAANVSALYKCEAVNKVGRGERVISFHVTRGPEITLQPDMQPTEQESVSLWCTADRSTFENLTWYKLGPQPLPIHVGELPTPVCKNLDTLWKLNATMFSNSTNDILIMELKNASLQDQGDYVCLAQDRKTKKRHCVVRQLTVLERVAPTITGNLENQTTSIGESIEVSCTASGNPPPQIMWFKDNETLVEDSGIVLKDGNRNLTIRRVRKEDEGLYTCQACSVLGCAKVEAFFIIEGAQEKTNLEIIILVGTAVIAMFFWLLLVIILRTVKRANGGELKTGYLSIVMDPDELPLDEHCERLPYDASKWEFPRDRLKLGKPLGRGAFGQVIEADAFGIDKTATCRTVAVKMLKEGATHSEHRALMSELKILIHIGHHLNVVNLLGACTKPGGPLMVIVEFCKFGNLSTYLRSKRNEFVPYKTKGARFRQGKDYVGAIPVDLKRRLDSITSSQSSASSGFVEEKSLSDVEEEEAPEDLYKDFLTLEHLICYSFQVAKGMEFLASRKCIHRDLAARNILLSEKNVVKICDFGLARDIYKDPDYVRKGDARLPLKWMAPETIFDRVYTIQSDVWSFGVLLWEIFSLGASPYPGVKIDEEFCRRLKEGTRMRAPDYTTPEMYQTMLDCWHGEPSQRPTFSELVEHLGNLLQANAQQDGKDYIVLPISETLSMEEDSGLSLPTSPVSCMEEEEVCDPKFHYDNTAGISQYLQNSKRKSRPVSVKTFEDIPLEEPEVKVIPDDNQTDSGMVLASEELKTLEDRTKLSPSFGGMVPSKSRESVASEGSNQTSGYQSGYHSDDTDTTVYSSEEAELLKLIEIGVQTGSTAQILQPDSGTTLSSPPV

Abl(h), sequence (P00519 whole entry): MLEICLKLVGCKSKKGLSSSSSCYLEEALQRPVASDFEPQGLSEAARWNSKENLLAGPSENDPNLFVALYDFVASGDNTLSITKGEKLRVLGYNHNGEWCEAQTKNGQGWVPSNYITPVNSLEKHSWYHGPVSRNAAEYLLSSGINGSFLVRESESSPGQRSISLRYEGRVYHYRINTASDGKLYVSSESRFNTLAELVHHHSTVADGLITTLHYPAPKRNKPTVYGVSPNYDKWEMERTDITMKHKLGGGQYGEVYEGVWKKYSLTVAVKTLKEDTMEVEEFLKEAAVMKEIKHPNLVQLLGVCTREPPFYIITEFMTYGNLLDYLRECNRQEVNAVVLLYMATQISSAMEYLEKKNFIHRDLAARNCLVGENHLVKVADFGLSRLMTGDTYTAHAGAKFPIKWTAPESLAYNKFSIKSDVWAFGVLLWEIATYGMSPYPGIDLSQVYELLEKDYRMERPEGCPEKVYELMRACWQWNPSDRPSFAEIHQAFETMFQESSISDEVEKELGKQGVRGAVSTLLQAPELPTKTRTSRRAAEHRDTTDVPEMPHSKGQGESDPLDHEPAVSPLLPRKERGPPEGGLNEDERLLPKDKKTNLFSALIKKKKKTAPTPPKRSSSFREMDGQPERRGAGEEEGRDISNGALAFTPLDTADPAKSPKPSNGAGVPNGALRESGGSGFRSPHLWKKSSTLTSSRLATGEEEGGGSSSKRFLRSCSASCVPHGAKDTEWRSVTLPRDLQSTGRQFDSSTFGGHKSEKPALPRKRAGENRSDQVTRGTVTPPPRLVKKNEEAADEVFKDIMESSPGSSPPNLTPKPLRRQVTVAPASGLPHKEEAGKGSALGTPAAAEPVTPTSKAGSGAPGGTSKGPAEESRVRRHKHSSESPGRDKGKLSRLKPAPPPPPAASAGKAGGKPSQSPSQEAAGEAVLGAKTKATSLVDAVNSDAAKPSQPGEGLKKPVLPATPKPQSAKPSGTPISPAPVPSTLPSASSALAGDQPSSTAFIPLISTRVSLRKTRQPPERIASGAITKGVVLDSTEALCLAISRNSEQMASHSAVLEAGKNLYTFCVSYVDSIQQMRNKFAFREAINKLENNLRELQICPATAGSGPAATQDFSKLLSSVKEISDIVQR
cSRC(h), sequence (P12931 whole entry): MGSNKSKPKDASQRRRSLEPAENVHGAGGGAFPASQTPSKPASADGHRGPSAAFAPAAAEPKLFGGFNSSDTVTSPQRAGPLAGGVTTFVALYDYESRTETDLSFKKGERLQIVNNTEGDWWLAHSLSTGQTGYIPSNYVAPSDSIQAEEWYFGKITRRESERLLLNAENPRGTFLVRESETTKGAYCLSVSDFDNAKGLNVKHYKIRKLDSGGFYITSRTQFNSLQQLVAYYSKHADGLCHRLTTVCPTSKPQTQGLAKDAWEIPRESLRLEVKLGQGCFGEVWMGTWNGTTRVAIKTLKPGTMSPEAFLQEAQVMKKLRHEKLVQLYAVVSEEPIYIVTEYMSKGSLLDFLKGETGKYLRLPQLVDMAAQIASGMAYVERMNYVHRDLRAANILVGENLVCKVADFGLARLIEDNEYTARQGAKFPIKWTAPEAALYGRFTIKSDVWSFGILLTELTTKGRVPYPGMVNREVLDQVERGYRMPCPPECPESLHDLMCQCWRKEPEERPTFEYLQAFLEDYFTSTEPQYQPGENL

For orientation: inhibition means the relative decrease from the control value, in per cent. Regarding `Cc1cc2c(F)c(Oc3nc(Nc4cc(C5CC5)[nH]n4)cc(N4CCN(C)CC4)n3)cc(F)c2[nH]1` [Compound 81], the inhibition at 1 µM against Abl(h) was 110%; at Ret(h), 99%; at Aurora-A(h), 99%; on Flt3(h), 101%; against cSRC(h) it was 99%; on KDR(h), 96%.

For `Cc1cc2c(F)c(Oc3nc(Nc4cc(C5CC5)[nH]n4)cc(N4CCOCC4)n3)cc(F)c2[nH]1` [Compound 84], the inhibition at 1 µM came to 103% against Abl(h); 100% against Ret(h); 98% at Aurora-A(h); 100% against Flt3(h); 100% against cSRC(h); 93% against KDR(h).

With `C/C=C/c1cc(Nc2cc(N3CCN(C)CC3)nc(Oc3cc(F)c4[nH]c(C)cc4c3F)n2)n[nH]1` [Compound 87], the inhibition at 1 µM turned out to be 112% at Abl(h); 83% on Ret(h); 99% at Aurora-A(h); 100% at Flt3(h); 95% on cSRC(h); 95% on KDR(h).

For the compound `C/C=C/c1cc(Nc2cc(N3CCOCC3)nc(Oc3cc(F)c4[nH]c(C)cc4c3F)n2)n[nH]1` [Compound 89], the inhibition at 1 µM against Abl(h) came out at 112%; on Ret(h), 99%; on Aurora-A(h) it was 100%; on Flt3(h) it was 100%; on cSRC(h), 100%; against KDR(h), 96%.

In the case of `C/C=C/c1cc(Nc2cc(N3CCC(O)C3)nc(Oc3cc(F)c4[nH]c(C)cc4c3F)n2)n[nH]1` (stereo not drawn) [Compound 92], the inhibition at 1 µM amounted to 111% against Abl(h); 102% against Ret(h); 100% on Aurora-A(h); 100% at Flt3(h); 100% on cSRC(h); 96% against KDR(h).

As for `C/C=C/c1cc(Nc2cc(N3CCC(OC)C3)nc(Oc3cc(F)c4[nH]c(C)cc4c3F)n2)n[nH]1` (stereo not drawn) [Compound 93], the inhibition at 1 µM is 111% against Abl(h); 102% at Ret(h); 102% on Aurora-A(h); 100% against Flt3(h); 101% against cSRC(h); 95% on KDR(h).

Regarding `C/C=C/c1cc(Nc2cc(N3CCC(N(CC)CC)C3)nc(Oc3cc(F)c4[nH]c(C)cc4c3F)n2)n[nH]1` (stereo not drawn) [Compound 94], the inhibition at 1 µM against Abl(h) came to 111%; against Ret(h) it was 102%; on Aurora-A(h), 100%; at Flt3(h) it was 99%; on cSRC(h), 100%; against KDR(h) it was 96%.

In the case of `C/C=C/c1cc(Nc2cc(N3CCC(O)CC3)nc(Oc3cc(F)c4[nH]c(C)cc4c3F)n2)n[nH]1` [Compound 95], the inhibition at 1 µM on Abl(h) was found to be 110%; against Ret(h), 101%; on Aurora-A(h), 100%; on Flt3(h), 100%; at cSRC(h), 100%; against KDR(h) it was 96%.

On to `C/C=C/c1cc(Nc2cc(N3CCC(OC)CC3)nc(Oc3cc(F)c4[nH]c(C)cc4c3F)n2)n[nH]1` [Compound 96], for which the inhibition at 1 µM against Abl(h) is 110%; at Ret(h), 102%; at Aurora-A(h), 98%; against Flt3(h) it was 99%; against cSRC(h), 101%; against KDR(h), 95%.

With `C/C=C/c1cc(Nc2cc(N3CCN(S(C)(=O)=O)CC3)nc(Oc3cc(F)c4[nH]c(C)cc4c3F)n2)n[nH]1` [Compound 98], the inhibition at 1 µM was 111% against Abl(h); 102% against Ret(h); 98% on Aurora-A(h); 100% against Flt3(h); 100% against cSRC(h); 96% against KDR(h).

On to `C/C=C/c1cc(Nc2cc(N3CCN(CC)CC3)nc(Oc3cc(F)c4[nH]c(C)cc4c3F)n2)n[nH]1` [Compound 99], for which the inhibition at 1 µM against Abl(h) is 113%; against Ret(h) it was 102%; on Aurora-A(h), 101%; on Flt3(h), 102%; against cSRC(h) it was 103%; against KDR(h), 91%.

For `CCN1CCN(c2cc(Nc3cc(C)[nH]n3)nc(Oc3cc(F)c4[nH]c(C)cc4c3F)n2)CC1` [Compound 103], the inhibition at 1 µM on Abl(h) came out at 113%; at Ret(h) it was 101%; on Aurora-A(h), 97%; on Flt3(h), 99%; against cSRC(h), 96%; at KDR(h), 91%.

Take `Cc1cc(Nc2cc(N3CCN(CCO)CC3)nc(Oc3cc(F)c4[nH]c(C)cc4c3F)n2)n[nH]1` [Compound 105]: the inhibition at 1 µM against Abl(h) is 112%; at Ret(h) it was 101%; at Aurora-A(h), 98%; on Flt3(h), 99%; against cSRC(h), 96%; on KDR(h) it was 91%.

With `Cc1cc(Nc2cc(N3CCNCC3)nc(Oc3cc(F)c4[nH]c(C)cc4c3F)n2)n[nH]1` [Compound 106], the inhibition at 1 µM against Abl(h) amounted to 109%; on Ret(h), 98%; on Aurora-A(h) it was 97%; against Flt3(h) it was 99%; against cSRC(h), 98%; against KDR(h), 95%.

Turning to `Cc1cc(Nc2cc(N3CCOCC3)nc(Oc3cc(F)c4[nH]c(C)cc4c3F)n2)n[nH]1` [Compound 107], the inhibition at 1 µM on Abl(h) is 111%; at Ret(h), 99%; at Aurora-A(h), 95%; against Flt3(h) it was 98%; at cSRC(h), 96%; at KDR(h) it was 90%.

Regarding `C/C=C/c1cc(Nc2cc(N3CCN(C)CC3)nc(Oc3ccc4[nH]c(C)cc4c3Cl)n2)n[nH]1` [Compound 112], the inhibition at 1 µM at Abl(h) came out at 113%; at Ret(h), 102%; on Aurora-A(h) it was 100%; at Flt3(h) it was 102%; against cSRC(h) it was 104%; against KDR(h), 91%.

For the compound `C/C=C/c1cc(Nc2cc(N3CCN(C)CC3)nc(Oc3ccc4c(cc(C)n4C)c3F)n2)n[nH]1` [Compound 120], the inhibition at 1 µM was found to be 115% against Abl(h); 101% against Ret(h); 101% at Aurora-A(h); 101% against Flt3(h); 104% against cSRC(h); 91% against KDR(h).
